Drawing on patent US20250320206A1, “STAT6 DEGRADERS” (Gilead Sciences, Inc., priority 2024, published 2025), this text covers EC50 and DC50 for 21 molecules.

Test [1] concerns Eotaxin-3 release in human whole blood stimulated with IL-4. Briefly: Human Whole Blood Eotaxin-3 Assay (IL-4 stimulated eotaxin-3 release). Type of test: cell-based. Particulars: IL-4 stimulation, 48 h, values given for compounds with >80% Emax, geometric mean. The essentials: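 Lithium-heparin human whole blood preincubated 2 h at 37° C with 4-fold serially diluted compounds (0.5% DMSO), then stimulated with recombinant human IL-4 ([…]) for 48 h. Eotaxin-3 (CCL26) in supernatant quantified by MSD immunoassay.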

The target of another test is T1, STAT6 (Homo sapiens, UniProt P42226).
T1 construct: These cells express endogenous STAT6; host or cells: HeLa LgBiT clone 4.14
T1 sequence (P42226 1-847): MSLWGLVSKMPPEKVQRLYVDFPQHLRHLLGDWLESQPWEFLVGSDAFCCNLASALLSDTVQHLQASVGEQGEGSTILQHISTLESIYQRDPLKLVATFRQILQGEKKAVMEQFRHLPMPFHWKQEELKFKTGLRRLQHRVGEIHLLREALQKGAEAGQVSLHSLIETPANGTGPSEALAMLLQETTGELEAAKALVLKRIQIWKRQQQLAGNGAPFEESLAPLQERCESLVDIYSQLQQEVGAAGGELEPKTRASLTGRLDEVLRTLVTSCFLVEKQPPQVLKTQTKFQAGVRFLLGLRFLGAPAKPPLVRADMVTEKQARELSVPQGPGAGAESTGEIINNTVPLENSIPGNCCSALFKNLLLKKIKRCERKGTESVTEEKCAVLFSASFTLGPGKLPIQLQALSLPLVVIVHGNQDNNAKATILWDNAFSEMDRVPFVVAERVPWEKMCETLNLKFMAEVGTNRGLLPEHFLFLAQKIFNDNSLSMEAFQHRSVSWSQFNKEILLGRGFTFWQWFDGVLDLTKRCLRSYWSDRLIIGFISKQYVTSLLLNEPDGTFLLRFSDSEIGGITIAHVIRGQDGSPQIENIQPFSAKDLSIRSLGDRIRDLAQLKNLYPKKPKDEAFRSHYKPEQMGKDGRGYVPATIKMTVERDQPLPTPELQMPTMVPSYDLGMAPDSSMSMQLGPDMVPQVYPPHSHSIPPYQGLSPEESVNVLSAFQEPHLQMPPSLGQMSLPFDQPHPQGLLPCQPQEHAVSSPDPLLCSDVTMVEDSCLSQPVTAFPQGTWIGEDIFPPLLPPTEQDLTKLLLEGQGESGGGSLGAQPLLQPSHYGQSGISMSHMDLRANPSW
Briefly: Stat6 Degrader Assay (HiBiT based, HeLa LgBiT clone 4.14). Type of test: cell-based. Particulars: HeLa LgBiT clone 4.14 HiBiT-STAT6, 4-24 h incubation; values given for compounds with >80% Emax; geometric mean; read-out: STAT6 degradation DC50. The essentials: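 HeLa LgBiT clone 4.14 cells with CRISPR HiBiT-tagged endogenous STAT6, 5000 cells/well, compound dosed then incubated 4-24 h at 37° C, 5% CO2. Nano-Glo substrate added, 0.5 h, luminescence read as non-degraded STAT6. Terfenadine 50 μM (cell kill) defines 100% degradation.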

Consider `CNc1ccn(-c2ccnc3c2cc([C@H](C)N2CC=C(c4c(C)cc(C(=O)N5CCC(CN6CCN(Cc7ccc8c(c7)C(C)(C)C(=O)N8[C@@H]7CCC(=O)NC7=O)C[C@@H]6C)CC5)cc4F)CC2)n3C)c(=O)c1` (single isomer, unassigned) [Example 3u177], for which a half-maximal response in test [1] (EC50) required 3.1 nM. Besides, on STAT6, the 50% degradation concentration (DC50) worked out at 1.8 nM.
The like results for `CNc1ccn(-c2ccnc3c2cc(CN2CC=C(c4c(C)cc(C(=O)N5CCC(CN6CCN(Cc7ccc8c(c7)C(C)(C)C(=O)N8[C@H]7CCC(=O)NC7=O)C[C@@H]6C)CC5)cc4F)CC2)n3C)c(=O)c1` (single isomer, unassigned) [Example 3u179] were, in that order, 12.4 nM and 6.1 nM.
In the same order, the values of `CNc1ccn(-c2ccnc3c2cc(CN2CC=C(c4c(C)cc(C(=O)N5CCC(CN6CCN(Cc7ccc8c(c7)C(C)(C)C(=O)N8[C@@H]7CCC(=O)NC7=O)C[C@@H]6C)CC5)cc4F)CC2)n3C)c(=O)c1` (single isomer, unassigned) [Example 3u180] are 17.3 nM and 8.8 nM.
The like results for `CNc1ccn(-c2ccnc3c2cc([C@H](C)N2CC=C(c4c(C)cc(C(=O)N5CCC(CN6CCN(Cc7cc8c(cc7F)N([C@@H]7CCC(=O)NC7=O)C(=O)C8(C)C)C[C@@H]6C)CC5)cc4F)CC2)n3C)c(=O)c1` (single isomer, unassigned) [Example 3u183] were, in that order, 8 nM and 5.9 nM.
On to `C[C@H]1CN(Cc2ccc3c(c2)C(C)(C)C(=O)N3[C@H]2CCC(=O)NC2=O)CCN1CC1CCN(C(=O)c2ccc(C3CCN([C@@H](C)c4cc5c(-n6ccc7c(c6=O)CCN7)ccnc5n4C)CC3)cc2)CC1` (single isomer, unassigned) [Example 3u185], for which a half-maximal response in test [1] (EC50) required 2.3 nM. Besides, the DC50 at STAT6 worked out at 2.8 nM.
In the case of `C[C@H]1CN(Cc2ccc3c(c2)C(C)(C)C(=O)N3[C@@H]2CCC(=O)NC2=O)CCN1CC1CCN(C(=O)c2ccc(C3CCN([C@@H](C)c4cc5c(-n6ccc7c(c6=O)CCN7)ccnc5n4C)CC3)cc2)CC1` (single isomer, unassigned) [Example 3u186], a half-maximal response in test [1] (EC50) required 4.6 nM. For the same molecule, at STAT6, the DC50 worked out at 3.5 nM.
The molecule `CNc1ccn(-c2ccnc3c2cc([C@H](C)N2CCC(c4ccc(C(=O)N5CCC(CN6CCN(Cc7ccc8c(c7)C(C)(C)C(=O)N8[C@@H]7CCC(=O)NC7=O)C[C@@H]6C)CC5)cc4)CC2)n3C)c(=O)c1` (single isomer, unassigned) [Example 3u189] gave an EC50 in test [1] of 7.7 nM. On STAT6, the DC50 was 4.7 nM.
With `CNc1ccn(-c2ccnc3c2cc([C@H](C)N2CC=C(c4c(C)cc(C(=O)N5CCC(CN6CCN(Cc7ccc8c(c7)C7(CC7)C(=O)N8[C@H]7CCC(=O)NC7=O)C[C@@H]6C)CC5)cc4F)CC2)n3C)c(=O)c1` (single isomer, unassigned) [Example 3u191], in test [1], the EC50 came out at 0.5 nM. Further, the DC50 on STAT6 is 0.4 nM.
In the same order, the values of `CNc1ccn(-c2ccnc3c2cc([C@H](C)N2CC=C(c4c(C)cc(C(=O)N5CCC(CN6CCN(Cc7ccc8c(c7)C7(CC7)C(=O)N8[C@@H]7CCC(=O)NC7=O)C[C@@H]6C)CC5)cc4F)CC2)n3C)c(=O)c1` (single isomer, unassigned) [Example 3u192] are 0.9 nM and 0.6 nM.
In test [1], `CNc1ccn(-c2ccnc3c2cc([C@H](C)N2CC=C(c4c(C)cc(C(=O)N5CCC(CN6CCN(Cc7cc8c(cc7F)N([C@H]7CCC(=O)NC7=O)C(=O)C87CC7)C[C@@H]6C)CC5)cc4F)CC2)n3C)c(=O)c1` (single isomer, unassigned) [Example 3u194] came in with an EC50 of 0.9 nM. On STAT6, the DC50 is 1.7 nM.
The like results for `CNc1ccn(-c2ccnc3c2cc([C@H](C)N2CC=C(c4c(C)cc(C(=O)N5CCC(CN6CCN(Cc7cc8c(cc7F)N([C@@H]7CCC(=O)NC7=O)C(=O)C87CC7)C[C@@H]6C)CC5)cc4F)CC2)n3C)c(=O)c1` (single isomer, unassigned) [Example 3u195] were, in that order, 2.2 nM and 1.6 nM.
On to `CNc1ccn(-c2ccnc3c2cc([C@H](C)N2CCC(c4c(C)cc(C(=O)N5CCC(CN6CCN(Cc7ccc8c(c7)n(C7CC7)c(=O)n8[C@H]7CCC(=O)NC7=O)C[C@@H]6C)CC5)cc4F)CC2)n3C)c(=O)c1` (single isomer, unassigned) [Example 3u198], for which the EC50 in test [1] worked out at 1.6 nM. The DC50 at STAT6 was found to be 1.2 nM.
As to `CNc1ccn(-c2ccnc3c2cc([C@H](C)N2CCC(c4c(C)cc(C(=O)N5CCC(CN6CCN(Cc7ccc8c(c7)n(C7CC7)c(=O)n8[C@@H]7CCC(=O)NC7=O)C[C@@H]6C)CC5)cc4F)CC2)n3C)c(=O)c1` (single isomer, unassigned) [Example 3u199], the EC50 in test [1] was 2.7 nM. In addition, the DC50 on STAT6 was determined as 1.1 nM.
In the same order, the values of `CNc1ccn(-c2ccnc3c2cc([C@H](C)N2CC=C(c4c(F)cc(C(=O)N5CCC(CN6CCN(Cc7ccc8c(c7)C(C)(C)C(=O)N8[C@H]7CCC(=O)NC7=O)C[C@@H]6C)CC5)cc4F)CC2)n3C)c(=O)c1` (single isomer, unassigned) [Example 3u202] are 2.6 nM and 1.9 nM.
In the case of `CNc1ccn(-c2ccnc3c2cc([C@H](C)N2CC=C(c4c(F)cc(C(=O)N5CCC(CN6CCN(Cc7ccc8c(c7)C(C)(C)C(=O)N8[C@@H]7CCC(=O)NC7=O)C[C@@H]6C)CC5)cc4F)CC2)n3C)c(=O)c1` (single isomer, unassigned) [Example 3u203], the 50% effective concentration (EC50) in test [1] amounted to 5.2 nM. Moreover, the DC50 on STAT6 is 3.4 nM.
In the same order, the values of `CNc1ccn(-c2ccnc3c2cc(CN2CCC(c4c(F)cc(C(=O)N5CCC(CN6CCN(Cc7ccc8c(c7)C(C)(C)C(=O)N8[C@H]7CCC(=O)NC7=O)C[C@@H]6C)CC5)cc4F)CC2)n3C)c(=O)c1` (single isomer, unassigned) [Example 3u205] are 5.9 nM and 3 nM.
The like results for `CNc1ccn(-c2ccnc3c2cc(CN2CCC(c4c(F)cc(C(=O)N5CCC(CN6CCN(Cc7ccc8c(c7)C(C)(C)C(=O)N8[C@@H]7CCC(=O)NC7=O)C[C@@H]6C)CC5)cc4F)CC2)n3C)c(=O)c1` (single isomer, unassigned) [Example 3u206] were, in that order, 10.9 nM and 0.4 nM.
In the case of `CNc1ccn(-c2ccnc3c2cc([C@H](C)N2CC=C(c4c(C)cc(C(=O)N5CCC(CN6CCN(Cc7cc8c(cc7F)n([C@H]7CCC(=O)NC7=O)c(=O)n8C)C[C@@H]6C)CC5)cc4F)CC2)n3C)c(=O)c1` (single isomer, unassigned) [Example 3u208], in test [1], the EC50 came out at 0.8 nM. Further, on STAT6, the DC50 was determined as 0.6 nM.
In the same order, the values of `CNc1ccn(-c2ccnc3c2cc([C@H](C)N2CC=C(c4c(C)cc(C(=O)N5CCC(CN6CCN(Cc7cc8c(cc7F)n([C@@H]7CCC(=O)NC7=O)c(=O)n8C)C[C@@H]6C)CC5)cc4F)CC2)n3C)c(=O)c1` (single isomer, unassigned) [Example 3u209] are 0.7 nM and 7.3 nM.
Regarding `CNc1ccn(-c2ccnc3c2cc([C@H](C)N2CC=C(c4c(F)cc(C(=O)N5CCC(CN6CCN(Cc7ccc8c(c7)n(C7CC7)c(=O)n8[C@H]7CCC(=O)NC7=O)C[C@@H]6C)CC5)cc4F)CC2)n3C)c(=O)c1` (single isomer, unassigned) [Example 3u211], in test [1], the response was half-maximal at 0.5 nM (EC50). The DC50 on STAT6 amounted to 0.5 nM.
Molecule `CNc1ccn(-c2ccnc3c2cc([C@H](C)N2CC=C(c4c(F)cc(C(=O)N5CCC(CN6CCN(Cc7ccc8c(c7)n(C7CC7)c(=O)n8[C@@H]7CCC(=O)NC7=O)C[C@@H]6C)CC5)cc4F)CC2)n3C)c(=O)c1` (single isomer, unassigned) [Example 3u212] showed an EC50 in test [1] of 0.8 nM. On STAT6, the 50% degradation concentration (DC50) turned out to be 7.5 nM.
